The source of these data is ChEMBL document CHEMBL1201862, “PubChem BioAssay data set” (2004).

As a reminder, the GI50 is the concentration giving 50% growth inhibition.

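Interpolation was linear, between the two tested concentrations surrounding the appropriate level; five concentrations were tested over 48 hours in 96-well plates. At the GI50, growth is halved.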 Activity calls are given as the source filed them. Rule as the data show it: active = GI50 up to about 1.1 µM and inactive = higher. Some results are limits rather than exact numbers.

Some test systems named below: A549; CCRF-CEM; DU-145; HCC 2998; HCT-116; IGROV-1; K562; KM12; MDA-N; NCI/ADR-RES; OVCAR-8; RPMI-8226; SF-268; SF-539; SK-MEL-28; SN12C; SNB-75; U-251; MDA-MB-435; MDA-MB-231.
Assay in all cases: DTP human tumour cell line panel, 48 h

As to `Cc1cccc2nc3n(c12)C(=O)c1ccccc1-3`, the GI50 in the assay on A549 was > 100 µM (inactive); with CCRF-CEM it was > 100 µM (inactive); with DU-145 it was 44.4 µM (inactive); in the assay with HCC 2998, > 100 µM (inactive); with HCT-116, > 100 µM (inactive); with IGROV-1 it was > 100 µM (inactive). The GI50 was > 100 µM (inactive) with K562; > 100 µM (inactive) with KM12; 43.2 µM (inactive) in the assay on MDA-N; > 100 µM (inactive) with NCI/ADR-RES; > 100 µM (inactive) with OVCAR-8; > 100 µM (inactive) with RPMI-8226. The GI50 in the assay with SF-268, in the assay on SF-539, with SK-MEL-28, in the assay on SN12C, in the assay on SNB-75 and in the assay with U-251 was > 100 µM (inactive) each time.

For `Nn1c(=S)[nH]nc(/C=C/c2c(O)ccc3ccccc23)c1=O`, the GI50 was 6.78 µM (inactive) in the assay on A549; 1.92 µM (inactive) in the assay on CCRF-CEM; 12.1 µM (inactive) in the assay on DU-145; 7.5 µM (inactive) with HCC 2998; 3.32 µM (inactive) in the assay on HCT-116; 1.64 µM (inactive) with IGROV-1. The GI50 in the assay on K562 is 5.27 µM (inactive); in the assay with KM12, 6.12 µM (inactive); in the assay with MDA-MB-435 it was 13.2 µM (inactive); in the assay with MDA-N, 12.3 µM (inactive); in the assay with NCI/ADR-RES, 3.26 µM (inactive); in the assay with OVCAR-8, 1.78 µM (inactive). In addition, the GI50 is 28.6 µM (inactive) in the assay with RPMI-8226; 2.96 µM (inactive) with SF-268; 19.3 µM (inactive) with SF-539; 8.95 µM (inactive) in the assay on SK-MEL-28; 8.22 µM (inactive) with U-251.

Regarding `O=C(NCCCCNCCCNC(=O)C(F)(F)F)C(F)(F)F`, the GI50 in the assay on A549, in the assay on CCRF-CEM, in the assay on DU-145, in the assay on HCC 2998, in the assay on HCT-116 and in the assay on IGROV-1 was > 100 µM (inactive) each time. Further, the GI50 in the assay on K562, in the assay on KM12, in the assay on MDA-MB-231, in the assay on MDA-MB-435, with NCI/ADR-RES and with OVCAR-8 was > 100 µM (inactive) each time. Moreover, the GI50 with RPMI-8226, in the assay with SF-268, in the assay on SF-539, with SK-MEL-28, with SN12C and in the assay with SNB-75 was > 100 µM (inactive) in each case. In addition, the GI50 in the assay with U-251 was > 100 µM (inactive).

`CCn1c(CCl)nc2c1C(=O)c1ccccc1C2=O`: the GI50 was 3.4 µM (inactive) with A549; 0.171 µM (active) with CCRF-CEM; 2.67 µM (inactive) in the assay with DU-145; 1.56 µM (inactive) in the assay on HCC 2998; 2.13 µM (inactive) in the assay with HCT-116; 1.7 µM (inactive) with IGROV-1. For the same molecule, the GI50 with K562 was 2.36 µM (inactive); in the assay on KM12, 1.73 µM (inactive); with MDA-MB-435, 1.69 µM (inactive); in the assay on MDA-N, 2.17 µM (inactive); in the assay on NCI/ADR-RES, 2.48 µM (inactive); in the assay on OVCAR-8, 1.58 µM (inactive). For the same molecule, the GI50 with RPMI-8226 was 2.12 µM (inactive); in the assay with SF-268 it was 2.61 µM (inactive); in the assay with SF-539, 2.23 µM (inactive); in the assay with SK-MEL-28, 1.76 µM (inactive); with SN12C it was 1.6 µM (inactive); with SNB-75, 1.58 µM (inactive). Moreover, in the assay on U-251, the GI50 was 1.71 µM (inactive).

As to `C=C1C[C@H](O)[C@H]2C(C[Se]c3ccccc3)C(=O)O[C@@H]2[C@H]2[C@H](C)C(O)C[C@@H]12` (stereo not given in full), the GI50 was 44.2 µM (inactive) in the assay on A549; 24.8 µM (inactive) in the assay on CCRF-CEM; 44.2 µM (inactive) in the assay with DU-145; 23.1 µM (inactive) in the assay on HCT-116; 25.3 µM (inactive) in the assay on IGROV-1; 36.6 µM (inactive) in the assay with K562. Also, the GI50 was 40 µM (inactive) with KM12; 14.8 µM (inactive) in the assay with MDA-MB-231; 80.2 µM (inactive) with MDA-MB-435; 20.2 µM (inactive) in the assay on NCI/ADR-RES; 41.8 µM (inactive) in the assay on OVCAR-8; 23.9 µM (inactive) with RPMI-8226. Further, the GI50 was 67.6 µM (inactive) in the assay on SF-268; 55.3 µM (inactive) in the assay on SF-539; 76.2 µM (inactive) with SK-MEL-28; 21.8 µM (inactive) in the assay on SN12C; 31.8 µM (inactive) in the assay with SNB-75; 16.4 µM (inactive) in the assay on U-251.

In the case of `COc1ccc(C(=O)/C=C/c2ccc(OCCSCCCCCCCCCCSCCOc3ccc(/C=C/C(=O)c4ccc(OC)c(OC)c4)cc3)cc2)cc1OC`, the GI50 with A549, in the assay with CCRF-CEM, in the assay with DU-145, with HCC 2998, in the assay on HCT-116 and with IGROV-1 was > 100 µM (inactive) each time. For the same molecule, the GI50 with K562, with KM12, with MDA-MB-231, in the assay on MDA-MB-435, in the assay on MDA-N and in the assay on OVCAR-8 was > 100 µM (inactive) throughout. The GI50 with RPMI-8226, with SF-268, in the assay on SF-539, with SK-MEL-28, in the assay on SN12C and in the assay on SNB-75 was > 100 µM (inactive) each time.

In the case of `O=C1C=CN(C2OC(CO)C(O)C2O)C(=O)C1` (stereo not given), the GI50 is 17.8 µM (inactive) in the assay on A549; 6.87 µM (inactive) in the assay with CCRF-CEM; 9.38 µM (inactive) in the assay on DU-145; 1.51 µM (inactive) in the assay on HCT-116; 223 µM (inactive) with IGROV-1; 1.58 µM (inactive) in the assay with K562. Moreover, the GI50 with MDA-MB-231 was 363 µM (inactive); in the assay with MDA-MB-435, 161 µM (inactive); in the assay on MDA-N it was 62.5 µM (inactive); with RPMI-8226 it was 5.47 µM (inactive); with SF-539, 91.6 µM (inactive); in the assay with SN12C, 10 µM (inactive). Besides, the GI50 in the assay on SNB-75 is 838 µM (inactive).

Consider `COc1cc2c(c(OC)c1)[C@H](C)N(Cc1ccccc1)C(C)C2` (stereo not given in full), for which the GI50 in the assay on A549 is 43.5 µM (inactive); in the assay on CCRF-CEM, 36.6 µM (inactive); in the assay on DU-145 it was > 100 µM (inactive); in the assay with HCC 2998, 33 µM (inactive); in the assay with HCT-116, 14.7 µM (inactive); in the assay on IGROV-1, 29.4 µM (inactive). Moreover, the GI50 in the assay with K562 is 21.9 µM (inactive); in the assay on KM12, 30.2 µM (inactive); in the assay with MDA-MB-231, 36.3 µM (inactive); in the assay with MDA-MB-435, 16.3 µM (inactive); with MDA-N, > 10 µM (inactive); in the assay with OVCAR-8, 74.1 µM (inactive). Also, the GI50 in the assay with RPMI-8226 is 21.3 µM (inactive); in the assay with SF-268, 80.2 µM (inactive); with SF-539, 16.6 µM (inactive); with SK-MEL-28 it was 30.5 µM (inactive); in the assay with SN12C, 35.2 µM (inactive); with SNB-75, 41.1 µM (inactive).
